Laboratory results published in US20250205259A1, “CLASS OF 7-((FIVE-MEMBERED HETEROCYCLIC)METHYL)-8-CARBOXYLIC ACID-BENZO CYCLIC BORATE DERIVATIVES AND USES THEREOF” (priority 2022, published 2025).
Read-outs that look alike come from different tables or passages of the source.

What was measured:
NDM-5 = NDM-5 (Klebsiella pneumoniae, UniProt C7C422, M154L/V88L); assay: Inhibitory activity on MBL, fluorescent substrate FC-5; assay type: biochemical
CTX-M-14 = CTX-M-14 (Escherichia coli, UniProt Q9L5C7); assay: Inhibitory activity on SBL, fluorescent substrate FC-5; assay type: biochemical
CTX-M-14, sequence (Q9L5C7 entry or part of it): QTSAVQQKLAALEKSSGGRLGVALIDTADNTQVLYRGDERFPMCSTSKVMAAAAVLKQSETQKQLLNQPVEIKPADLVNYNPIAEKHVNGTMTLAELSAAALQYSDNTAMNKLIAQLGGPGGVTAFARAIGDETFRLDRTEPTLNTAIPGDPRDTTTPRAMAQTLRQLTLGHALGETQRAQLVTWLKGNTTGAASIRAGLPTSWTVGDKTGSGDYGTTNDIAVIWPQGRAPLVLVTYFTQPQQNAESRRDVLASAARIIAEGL

AmpC = AmpC (UniProt P24735); assay: as above
VIM-1 = VIM-1 (Pseudomonas aeruginosa, UniProt A0A0F7KYQ8); assay: Inhibitory activity on MBL, fluorescent substrate FC-5; assay type: biochemical
NDM-1 = NDM-1 (Klebsiella pneumoniae, UniProt C7C422); assay: as above; assay type: biochemical
NDM-1, sequence (C7C422 29-270 limits assumed): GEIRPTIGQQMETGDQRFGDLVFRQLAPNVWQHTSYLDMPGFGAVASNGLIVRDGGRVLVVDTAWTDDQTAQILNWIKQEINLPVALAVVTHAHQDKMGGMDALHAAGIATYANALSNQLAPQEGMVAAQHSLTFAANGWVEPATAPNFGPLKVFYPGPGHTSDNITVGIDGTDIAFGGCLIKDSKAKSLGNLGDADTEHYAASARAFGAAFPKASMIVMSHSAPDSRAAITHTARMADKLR

VIM-2 = VIM-2 (Escherichia coli, UniProt Q5U7L7); assay: as above; assay type: biochemical
IMP-1 = IMP-1 (Serratia marcescens, UniProt P52699); assay: as above; assay type: biochemical
IMP-1, sequence (P52699 19-246 limits assumed): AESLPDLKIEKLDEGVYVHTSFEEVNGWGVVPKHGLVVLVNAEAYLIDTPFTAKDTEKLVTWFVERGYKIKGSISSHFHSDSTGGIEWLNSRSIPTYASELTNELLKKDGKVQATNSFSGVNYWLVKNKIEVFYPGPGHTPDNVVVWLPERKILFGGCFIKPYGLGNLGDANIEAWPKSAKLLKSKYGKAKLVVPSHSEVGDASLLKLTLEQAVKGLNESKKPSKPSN

SHV-12 = biological target: T1, SHV-12 (UniProt P0AD64, L31Q/G234S/E235K, species not given); assay: Inhibitory activity on SBL, fluorescent substrate FC-5; assay type: biochemical; settings: for inhibitory activity on SHV-12 compared to control drugs: comparison in words
T1 sequence (P0AD64 1-286 L31Q/G234S/E235K): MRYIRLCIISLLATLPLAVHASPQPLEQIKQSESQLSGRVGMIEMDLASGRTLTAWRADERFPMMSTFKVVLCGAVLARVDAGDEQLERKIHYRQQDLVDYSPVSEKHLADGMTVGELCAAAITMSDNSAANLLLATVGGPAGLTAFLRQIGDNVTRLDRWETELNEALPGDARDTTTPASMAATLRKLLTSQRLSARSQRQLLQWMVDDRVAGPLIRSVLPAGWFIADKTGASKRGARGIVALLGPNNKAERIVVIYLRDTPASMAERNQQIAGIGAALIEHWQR

KPC-2 = KPC-2 (Klebsiella pneumoniae, UniProt Q9F663); assay: as above; assay type: biochemical
KPC-2, sequence (Q9F663 25-293 limits assumed): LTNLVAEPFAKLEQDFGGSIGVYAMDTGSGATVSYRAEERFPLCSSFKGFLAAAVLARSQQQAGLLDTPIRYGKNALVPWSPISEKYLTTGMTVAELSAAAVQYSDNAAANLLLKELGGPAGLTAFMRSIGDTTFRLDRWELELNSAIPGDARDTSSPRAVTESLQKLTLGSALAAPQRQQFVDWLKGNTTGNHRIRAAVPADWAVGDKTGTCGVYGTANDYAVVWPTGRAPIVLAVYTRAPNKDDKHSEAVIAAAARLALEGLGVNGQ

OXA-48 = OXA-48 (Klebsiella pneumoniae, UniProt Q6XEC0); assay: as above; assay type: biochemical
OXA-48, sequence (Q6XEC0 23-265 limits assumed): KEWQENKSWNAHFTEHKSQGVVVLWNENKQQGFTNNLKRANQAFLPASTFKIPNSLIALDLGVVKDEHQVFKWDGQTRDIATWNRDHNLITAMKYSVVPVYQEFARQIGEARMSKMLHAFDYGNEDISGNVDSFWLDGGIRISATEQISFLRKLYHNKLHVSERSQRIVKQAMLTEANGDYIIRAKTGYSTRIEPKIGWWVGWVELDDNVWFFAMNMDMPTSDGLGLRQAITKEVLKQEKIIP

TEM-1 = TEM-1 (Escherichia coli, UniProt P62593); assay: as above; assay type: biochemical; settings: for IC50: read-out: Inhibitory activity on SBL TEM-1 (IC50 class)
TEM-1, sequence (P62593 24-286 limits assumed): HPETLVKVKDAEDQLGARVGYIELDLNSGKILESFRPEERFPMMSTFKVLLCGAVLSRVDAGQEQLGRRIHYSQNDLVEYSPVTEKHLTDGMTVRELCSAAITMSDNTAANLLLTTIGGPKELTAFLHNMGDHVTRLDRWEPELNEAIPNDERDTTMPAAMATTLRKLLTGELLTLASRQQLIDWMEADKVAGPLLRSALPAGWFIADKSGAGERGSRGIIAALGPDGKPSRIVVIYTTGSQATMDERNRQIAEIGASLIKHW

[1] = read-out: Inhibitory activity on MBL NDM-5 (IC50 class)
[2] = read-out: Inhibitory activity on SBL CTX-M-14 (IC50 class)
[3] = read-out: Inhibitory activity on SBL AmpC (IC50 class)
[4] = read-out: Inhibitory activity on MBL VIM-1 (IC50 class)
[5] = read-out: Inhibitory activity on MBL NDM-1 (IC50 class)
[6] = read-out: Inhibitory activity on MBL VIM-2 (IC50 class)
[7] = read-out: Inhibitory activity on MBL IMP-1 (IC50 class)
[8] = read-out: Inhibitory activity on SBL SHV-12 (IC50 class)
[9] = read-out: Inhibitory activity on SBL KPC-2 (IC50 class)
[10] = read-out: Inhibitory activity on SBL OXA-48 (IC50 class)
[11] = VIM-1 and/or VIM-2, read-out: inhibitory activity at a nanomolar-level on VIM-1 and/or VIM-2
[12] = read-out: inhibitory activity at a nanomolar-level on NDM-5
[13] = read-out: inhibitory activity at a nanomolar-level on NDM-1
[14] = IMP-1 and/or IMP-4, read-out: inhibitory activity at a nanomolar-level on IMP-1 and/or IMP-4

NDM-5, sequence (C7C422 29-270 V88L/M154L): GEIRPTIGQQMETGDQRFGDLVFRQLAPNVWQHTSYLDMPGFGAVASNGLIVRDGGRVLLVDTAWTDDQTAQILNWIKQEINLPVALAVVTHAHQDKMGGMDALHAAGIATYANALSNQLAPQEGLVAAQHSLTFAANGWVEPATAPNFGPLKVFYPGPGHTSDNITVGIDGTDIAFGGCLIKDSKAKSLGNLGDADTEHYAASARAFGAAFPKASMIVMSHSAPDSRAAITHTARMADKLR

| Structure (SMILES) | IC50 (NDM-5; [1]) | IC50 (CTX-M-14; [2]) | IC50 (AmpC; [3]) | IC50 (VIM-1; [4]) | IC50 (NDM-1; [5]) | IC50 (VIM-2; [6]) | IC50 (IMP-1; [7]) | IC50 (SHV-12; [8]) | IC50 (KPC-2; [9]) | IC50 (OXA-48; [10]) | IC50 (VIM-1; [11]) | IC50 (TEM-1) | IC50 (NDM-5; [12]) | IC50 (NDM-1; [13]) | other results |
| --- | --- | --- | --- | --- | --- | --- | --- | --- | --- | --- | --- | --- | --- | --- | --- |
| O=C(O)c1c(CNc2nncs2)ccc2c1OB(O)CC2 [Comparative example 1 compound 64, reference compound] | 1000 to 100000 nM | 10 to 1000 nM | 1000 to 100000 nM | 1000 to 100000 nM | 1000 to 100000 nM | 1000 to 100000 nM | > 100000 nM | 1000 to 100000 nM | 10 to 1000 nM | 10 to 1000 nM |  |  |  |  | IC50 (NDM-5; unit inferred, read-out: NDM-5, number in parentheses under the class symbol): 3230 nM; IC50 (CTX-M-14; unit inferred, read-out: CTX-M-14, number in parentheses under the class symbol): 63 nM; IC50 (AmpC; read-out: AmpC, number in parentheses under the class symbol, unit inferred): 7500 nM; IC50 (VIM-1; unit inferred, read-out: VIM-1, number in parentheses under the class symbol): 5500 nM; IC50 (NDM-1): 3230 nM; IC50 (VIM-2; unit inferred, read-out: VIM-2, number in parentheses under the class symbol): 8100 nM; IC50 (IMP-1; unit inferred, read-out: IMP-1, number in parentheses under the class symbol): 103000 nM; IC50 (SHV-12; unit inferred, read-out: SHV-12, number in parentheses under the class symbol): 1580 nM; IC50 (KPC-2; unit inferred, read-out: KPC-2, number in parentheses under the class symbol): 65 nM; IC50 (OXA-48; unit inferred, read-out: OXA-48, number in parentheses under the class symbol): 154 nM |
| NCCCc1cn(Cc2ccc3c(c2C(=O)O)OB(O)CC3)nn1 [Compound 9] | 10 to 1000 nM | 10 to 1000 nM | > 100000 nM | 1000 to 100000 nM | 1000 to 100000 nM | 10 to 1000 nM | 1000 to 100000 nM |  | < 10 nM | < 10 nM | < 1000 nM | 10 to 1000 nM |  |  |  |
| N=C(N)NCCc1cn(Cc2ccc3c(c2C(=O)O)OB(O)CC3)nn1 [Compound 10] | 10 to 1000 nM | 10 to 1000 nM | > 100000 nM | 1000 to 100000 nM | 10 to 1000 nM | 10 to 1000 nM | 1000 to 100000 nM |  | < 10 nM | < 10 nM | < 1000 nM | 10 to 1000 nM | < 1000 nM | < 1000 nM |  |
| NC1CCC(c2cn(Cc3ccc4c(c3C(=O)O)OB(O)CC4)nn2)CC1 (centres unmarked) [Compound 11] | 10 to 1000 nM | 10 to 1000 nM | > 100000 nM | 1000 to 100000 nM | 10 to 1000 nM | 10 to 1000 nM | 1000 to 100000 nM |  | < 10 nM | < 10 nM | < 1000 nM | 10 to 1000 nM | < 1000 nM | < 1000 nM |  |
| O=C(O)c1c(Cn2cc(-c3ccccc3)nn2)ccc2c1OB(O)CC2 [Compound 12] | 10 to 1000 nM | 10 to 1000 nM | > 100000 nM | 1000 to 100000 nM | 10 to 1000 nM | 10 to 1000 nM | 1000 to 100000 nM |  | < 10 nM | < 10 nM | < 1000 nM | 10 to 1000 nM | < 1000 nM | < 1000 nM |  |
| O=C(O)c1c(Cn2ncc3ccccc32)ccc2c1OB(O)CC2 [Compound 22] | 10 to 1000 nM | 10 to 1000 nM | 1000 to 100000 nM | 10 to 1000 nM | 10 to 1000 nM | 10 to 1000 nM | 10 to 1000 nM |  | < 10 nM | < 10 nM | < 1000 nM | 10 to 1000 nM | < 1000 nM | < 1000 nM | IC50 (IMP-1; [14]): < 1000 nM |
| N=C(N)N1CC(c2cn(Cc3ccc4c(c3C(=O)O)OB(O)CC4)nn2)C1 [Compound 49] | 10 to 1000 nM | 10 to 1000 nM | 1000 to 100000 nM | 1000 to 100000 nM | 10 to 1000 nM | 10 to 1000 nM | 10 to 1000 nM |  | < 10 nM | 10 to 1000 nM |  | 10 to 1000 nM | < 1000 nM | < 1000 nM | IC50 (IMP-1; [14]): < 1000 nM |
| O=C(O)c1c(Cn2cc3c(n2)CNC3)ccc2c1OB(O)[C@@H]1C[C@H]21 [Compound 53] | 10 to 1000 nM | 10 to 1000 nM |  | 1000 to 100000 nM | 10 to 1000 nM | 10 to 1000 nM | 1000 to 100000 nM | 10 to 1000 nM | < 10 nM | < 10 nM |  | 10 to 1000 nM | < 1000 nM | < 1000 nM |  |
| O=C(O)c1c(Cn2cc3c(n2)CNC3)ccc2c1OB(O)[C@H]1C[C@@H]21 [Compound 54] | 10 to 1000 nM | 10 to 1000 nM |  | 1000 to 100000 nM | 10 to 1000 nM | 10 to 1000 nM | 1000 to 100000 nM | 10 to 1000 nM | 10 to 1000 nM | 10 to 1000 nM |  | 1000 to 100000 nM | < 1000 nM | < 1000 nM |  |
| O=C(O)c1c(Cn2ccc3cncnc32)ccc2c1OB(O)CC2 [Compound 55] | 10 to 1000 nM | < 10 nM | 1000 to 100000 nM | 1000 to 100000 nM | 10 to 1000 nM | 10 to 1000 nM | 10 to 1000 nM |  | < 10 nM | 10 to 1000 nM |  | < 10 nM | < 1000 nM | < 1000 nM | IC50 (IMP-1; [14]): < 1000 nM |
| NS(=O)(=O)N1Cc2cn(Cc3ccc4c(c3C(=O)O)OB(O)CC4)nc2C1 [Compound 57] | 10 to 1000 nM | < 10 nM |  | 10 to 1000 nM | 10 to 1000 nM | 10 to 1000 nM | 1000 to 100000 nM | 10 to 1000 nM | < 10 nM | < 10 nM | < 1000 nM | < 10 nM | < 1000 nM | < 1000 nM |  |
| NCCc1ccc(-c2cn(Cc3ccc4c(c3C(=O)O)OB(O)CC4)nn2)cc1 [Compound 65] |  |  | 1000 to 100000 nM |  |  |  |  |  | < 10 nM |  |  |  |  |  |  |
| N=C(N)N1Cc2cnn(Cc3ccc4c(c3C(=O)O)OB(O)CC4)c2C1 [Compound 67] | 1000 to 100000 nM | 10 to 1000 nM | > 100000 nM | 1000 to 100000 nM | 10 to 1000 nM | 10 to 1000 nM | 1000 to 100000 nM |  | < 10 nM | < 10 nM |  | 10 to 1000 nM |  |  |  |
| NCCN1Cc2cn(Cc3ccc4c(c3C(=O)O)OB(O)CC4)nc2C1 [Compound 70] | 10 to 1000 nM | 10 to 1000 nM |  | 10 to 1000 nM | 10 to 1000 nM | 10 to 1000 nM | 10 to 1000 nM | < 10 nM | < 10 nM | 10 to 1000 nM | < 1000 nM | < 10 nM | < 1000 nM | < 1000 nM | inhibitory activity on CTX-M-14 compared to avibactam (CTX-M-14; comparison in words): better or comparable; inhibitory activity on TEM-1 compared to avibactam (TEM-1; comparison in words): better or comparable; IC50 (IMP-1; [14]): < 1000 nM; inhibitory activity on SHV-12 compared to control drugs (SHV-12): comparable to avibactam and tazobactam and superior to taniborbactam; inhibitory activity on KPC-2 compared to avibactam (KPC-2; comparison in words): better or comparable; inhibitory activity on OXA-48 compared to avibactam (OXA-48; comparison in words): better or comparable |
| N#Cc1ccn(Cc2ccc3c(c2C(=O)O)OB(O)CC3)c1 [Compound 71] | 10 to 1000 nM | 10 to 1000 nM |  | 10 to 1000 nM | 10 to 1000 nM | 10 to 1000 nM | 10 to 1000 nM | < 10 nM | < 10 nM | 10 to 1000 nM | < 1000 nM | < 10 nM | < 1000 nM | < 1000 nM | inhibitory activity on SHV-12 compared to control drugs (SHV-12): comparable to avibactam and tazobactam and superior to taniborbactam |
| NC1CN(C(=O)c2cnn(Cc3ccc4c(c3C(=O)O)OB(O)CC4)c2)C1 [Compound 72] | 10 to 1000 nM | 10 to 1000 nM |  | 10 to 1000 nM | 10 to 1000 nM | 10 to 1000 nM | 10 to 1000 nM | < 10 nM | < 10 nM | 10 to 1000 nM | < 1000 nM | < 10 nM | < 1000 nM | < 1000 nM | inhibitory activity on SHV-12 compared to control drugs (SHV-12): comparable to avibactam and tazobactam and superior to taniborbactam |
